In patent US20180256496A1, “CONTROLLED-RELEASE FORMULATIONS” (Camurus AB, priority 2015, published 2018):

Design: species or system dog (beagle)
Conditions: dog, in vivo, sc
Protocol: The in vivo release profiles of granisetron and buprenorphine after subcutaneous injection of Formulations 7A and 7B (Example 7) in dog (beagle) was evaluated using the doses set out in Table 13. The animals were dosed on Days 1 and 8 with the respective formulation.
A validated bioanalytical method was used for the determination of GRN in dog plasma. The analytical method employed liquid chromatography with tandem mass spectrometric detection. The lower limit of quantification of the analytical method was 0.05 ng/mL. The calibration curve ranged from 0.05 to 50.0 ng/mL. Samples above the upper limit of quantitation were diluted into range using control beagle K2-EDTA plasma.

dose linearity with respect to exposure (AUC): dose linearity was indicated
Compound: CN1[C@@H]2CCC[C@H]1C[C@@H](NC(=O)c1nn(C)c3ccccc13)C2 [granisetron]
